Measurements as given in patent publication US20250304623A1, “PEPTIDES FOR INTRACELLULAR DELIVERY” (UNIVERSIDADE DE SANTIAGO DE COMPOSTELA, priority 2022, published 2025).
*: point of attachment. NHNH2 = NN*

How the values were obtained:
Assay type in all cases: cell-based
A549 cells = experiment: RLuc pDNA delivery, robotic library screening, A549
Description: (§1) Cells were seeded in a 96 well plate the day before the experiment at a concentration of 60,000 cell/mL (100 μL/w) in DMEM+10% FBS+1% Gln-Abt. For robotic library screening, the delivery of pDNA encoding for the expression of Renilla luciferase gene (RLuc, pRL-CMV (Promega, #E2261)) in six different cell lines was performed. Amphihilic molecule stock solutions in DMSO were diluted with DMEM and freshly mixed with pDNA stock solutions in DMEM prior to transfection experiments, to afford several complexes at different amphiphile concentration (2-10 μM) while maintaining a constant final pDNA concentration of 2 ng/μL. The mixture was shaken for 30 min at room temperature before the addition to the cells. The cell medium was aspirated, and cells were washed twice with PBS. Finally, 50 μL of the complex's solution were added to the cells and incubated for 4 h. After the incubation, the medium was replaced by 100 μL of fresh DMEM supplemented with 10% FBS. 72 hours after transfection the DMEM was removed, cells were washed once with HBSS and 90 μL of HBSS were added to each well. Cells were incubated at 37° C. for 30 minutes. Then basal luminescence levels were read in a plate reader. Immediately, 10 μL of coelenterazine h in HBSS were added to each well (5 μM final concentration) and cells were incubated at 37° C. for 10 minutes. Finally, the total luminescence measurement of the plates was performed. Amphiphile transfection efficiency was compared and normalized to Lipofectamine® 2000 efficiency (value of 1 in Tables 1-5 and 7; bold numbers). All experiments were done in triplicate.
(§2) Tables 1-7: RLuc (pDNA) or EGFP (mRNA) expression levels were normalized to Lipofectamine reagents (value=1) and expressed as fold-times signal increase. In the case of siRNA, the siRNA treated cells fluorescence was compared with siMOCK control fluorescence, while Cas9-RNP mediated knockout was measured against the fluorescence of untreated cells. In both siRNA and Cas9-RNP, values are expressed as % fluorescence reduction. Amphiphile concentration was 5 μM in all cases. All experiments were performed in triplicate.
(§3) Tables 8-13 show the mean (triplicates) luminescent intensity (RLU) measured after the transfection of RLuc pDNA by different amphiphiles at different concentrations in a variety of cell lines. Background luminescence values, accounted by untransfected control cells, were subtracted for processing.

Hela cells = experiment: RLuc pDNA delivery, robotic library screening, HeLa
Description: as §1, with “Amphihilic molecule stock solutions in DMSO were diluted with DMEM and freshly mixed with pDNA stock solutions in DMEM prior to transfection experiments, to afford several complexes at different amphiphile concentration (2-10 μM) while maintaining a constant final pDNA concentration of 2 ng/μL.” left out
as §2, §3

[1] = system: ARPE19 cells expressing EGFP; experiment: EGFP-targeting siRNA delivery (GFP silencing vs siMOCK), ARPE19
Description: (§4) To generate an EGFP expressing HeLa cell line, HeLa cells were transfected with EGFP pDNA (pEGFP-C1, Clontech) and stable transfectants were selected with 400 μg/mL of G-418 (Millipore). Green clones were selected by epifluorescence microscopy and tested for EGFP expression stability through several passages. […] All other EGFP-expressing cell lines were obtained in a similar way from parent non-EGFP-expressing cell lines.
(§5) Cells expressing EGFP were seeded in a 96 well plate the day before the experiment at a concentration of 50,000 cell/mL (100 μL/w) in DMEM+10% FBS+1% Gln-Abt. For robotic library screening, the delivery of an EGFP-targeting siRNA (EGFP: enhanced green fluorescent protein, Ambion® Silencer® GFP Positive Control siRNA (siGFP) (AM4626)) in six different cell lines expressing EGFP was performed. […] The mixture was shaken for 30 min at room temperature (rt) before the addition to the cells. The cell medium was aspirated, and cells were washed twice with PBS. Finally, 50 μL of the solution of siRNA/amphiphile complexes were added to the cells and incubated for 4 h. After transfection, the medium was replaced by 100 μL of fresh DMEM supplemented with 10% FBS. The fluorescence knockdown was quantified after 72 h in a plate reader, by comparison with cells transfected with a non-targeting siRNA control (siMOCK, Silencer™ Negative Control No. 1 siRNA (siMOCK) (AM4611)). EGFP knockdown was compared with Lipofectamine® RNAiMAX silencing efficiency (30-60% depending on cell line, defined with a numeric value in the below tables). All experiments were done in triplicate.
as §2
(§6) Tables 20-25 show the mean (triplicates) percentage of GFP-silencing, accounted by fluorescence intensity decrease relative to a non-targeting siRNA (siMOCK) control, measured after the transfection of siRNA by different amphiphiles at different concentrations in a variety of cell lines. Background values, accounted by untreated control cells, were subtracted for processing.

[2] = system: Hek293 cells expressing EGFP; experiment: EGFP-targeting siRNA delivery (GFP silencing vs siMOCK), Hek293
Description: as §4, §5, §2, §6

Substance: Ac-RHLK*RLK*RRLK*RL-NH2 (Ac-RHLKRLKRRLKRL-NH2; not fully specified (residues 4, 7, 11); printed as Ac-RHLK*RLK*RRLK*RL-NH2; also: linker on K* not given here) [13(Arg-His)]
- mean luminescent intensity (RLuc pDNA) (A549 cells; Dodecanal, 5 μM): 6594 RLU
- mean luminescent intensity (RLuc pDNA) (A549 cells; Myristoleyl, 5 μM): 8162 RLU
- mean luminescent intensity (RLuc pDNA) (A549 cells; Oleyl, 5 μM): 14340 RLU
- mean luminescent intensity (RLuc pDNA) (A549 cells; Palmitoleyl, 5 μM): 8561 RLU
- mean luminescent intensity (RLuc pDNA) (A549 cells; Palmitoleyl, 15 μM): 3763 RLU
- mean luminescent intensity (RLuc pDNA) (A549 cells; Petroselinyl, 15 μM): 9721 RLU
- mean luminescent intensity (RLuc pDNA) (Hela cells; Hela, Myristoleyl, 5 μM): −195 RLU
- mean luminescent intensity (RLuc pDNA) (Hela cells; Hela, Myristoleyl, 10 μM): −333 RLU
- mean luminescent intensity (RLuc pDNA) (Hela cells; Hela, Myristoleyl, 15 μM): −332 RLU
- mean luminescent intensity (RLuc pDNA) (Hela cells; Hela, Palmitoleyl, 5 μM): 5484 RLU
- mean luminescent intensity (RLuc pDNA) (Hela cells; Hela, Palmitoleyl, 10 μM): 921 RLU
- mean luminescent intensity (RLuc pDNA) (Hela cells; Hela, Petroselinyl, 5 μM): 8590 RLU
- percentage of GFP-silencing relative to siMOCK ([1]; Dodecanal, 5 μM): 60%
- percentage of GFP-silencing relative to siMOCK ([1]; Dodecanal, 10 μM): 54%
- percentage of GFP-silencing relative to siMOCK ([1]; Dodecanal, 15 μM): 34%
- percentage of GFP-silencing relative to siMOCK ([1]; Myristoleyl, 10 μM): 0%
- percentage of GFP-silencing relative to siMOCK ([1]; Myristoleyl, 15 μM): 14%
- percentage of GFP-silencing relative to siMOCK ([1]; Oleyl, 10 μM): 29%
- percentage of GFP-silencing relative to siMOCK ([1]; Oleyl, 15 μM): 31%
- percentage of GFP-silencing relative to siMOCK ([1]; Palmitoleyl, 5 μM): 51%
- percentage of GFP-silencing relative to siMOCK ([1]; Palmitoleyl, 10 μM): −6%
- percentage of GFP-silencing relative to siMOCK ([1]; Palmitoleyl, 15 μM): 7%
- percentage of GFP-silencing relative to siMOCK ([1]; Petroselinyl, 5 μM): 42%
- percentage of GFP-silencing relative to siMOCK ([1]; Petroselinyl, 10 μM): 24%
- percentage of GFP-silencing relative to siMOCK ([1]; Petroselinyl, 15 μM): 26%
- percentage of GFP-silencing relative to siMOCK ([2]; Dodecanal, 5 μM): 24%
- percentage of GFP-silencing relative to siMOCK ([2]; Dodecanal, 10 μM): 39%
- percentage of GFP-silencing relative to siMOCK ([2]; Dodecanal, 15 μM): 44%
- percentage of GFP-silencing relative to siMOCK ([2]; Myristoleyl, 10 μM): 48%
- percentage of GFP-silencing relative to siMOCK ([2]; Myristoleyl, 15 μM): 25%
- percentage of GFP-silencing relative to siMOCK ([2]; Oleyl, 10 μM): 39%
- percentage of GFP-silencing relative to siMOCK ([2]; Oleyl, 15 μM): 47%
- percentage of GFP-silencing relative to siMOCK ([2]; Petroselinyl, 5 μM): 30%
- percentage of GFP-silencing relative to siMOCK ([2]; Petroselinyl, 10 μM): 5%
- percentage of GFP-silencing relative to siMOCK ([2]; Petroselinyl, 15 μM): 18%

Substance: Ac-RK*LRK*K*L-NH2 (Ac-RK(NHNH2)LRK(NHNH2)K(NHNH2)L-NH2; not fully specified; printed as Ac-RK*LRK*K*L-NH2; also: K*2,K*5,K*6: native or modified lysine (ε-amide to a linker)) [Peptide 7.3]
- mean luminescent intensity (RLuc pDNA) (A549 cells; Dodecanal, 5 μM): 483 RLU
- mean luminescent intensity (RLuc pDNA) (A549 cells; Dodecanal, 15 μM): 777 RLU
- mean luminescent intensity (RLuc pDNA) (A549 cells; Palmitoleyl, 10 μM): 3679 RLU
- mean luminescent intensity (RLuc pDNA) (A549 cells; Petroselinyl, 5 μM): 4314 RLU
- mean luminescent intensity (RLuc pDNA) (Hela cells; HeLa, Dodecanal, 5 μM): 5231 RLU
- mean luminescent intensity (RLuc pDNA) (Hela cells; Hela, Myristoleyl, 5 μM): −622 RLU
- mean luminescent intensity (RLuc pDNA) (Hela cells; Hela, Myristoleyl, 10 μM): −417 RLU
- mean luminescent intensity (RLuc pDNA) (Hela cells; Hela, Myristoleyl, 15 μM): −422 RLU
- mean luminescent intensity (RLuc pDNA) (Hela cells; Hela, Palmitoleyl, 15 μM): 19128 RLU
- mean luminescent intensity (RLuc pDNA) (Hela cells; Hela, Petroselinyl, 15 μM): 12638 RLU
- percentage of GFP-silencing relative to siMOCK ([1]; Dodecanal, 5 μM): 15%
- percentage of GFP-silencing relative to siMOCK ([1]; Dodecanal, 10 μM): 35%
- percentage of GFP-silencing relative to siMOCK ([1]; Dodecanal, 15 μM): 45%
- percentage of GFP-silencing relative to siMOCK ([1]; Palmitoleyl, 15 μM): −5%
- percentage of GFP-silencing relative to siMOCK ([2]; Myristoleyl, 5 μM): 29%
- percentage of GFP-silencing relative to siMOCK ([2]; Oleyl, 5 μM): 26%
- percentage of GFP-silencing relative to siMOCK ([2]; Palmitoleyl, 15 μM): 19%
- percentage of GFP-silencing relative to siMOCK ([2]; Petroselinyl, 15 μM): 3%

Substance: Ac-RK*LRRK*L-NH2 (Ac-RK(NHNH2)LRRK(NHNH2)L-NH2; not fully specified; printed as Ac-RK*LRRK*L-NH2; also: K*2,K*6: native or modified lysine (ε-amide to a linker)) [Peptide 7.2]
- mean luminescent intensity (RLuc pDNA) (A549 cells; Dodecanal, 5 μM): 302 RLU
- mean luminescent intensity (RLuc pDNA) (A549 cells; Dodecanal, 15 μM): 208 RLU
- mean luminescent intensity (RLuc pDNA) (A549 cells; Myristoleyl, 5 μM): 5449 RLU
- mean luminescent intensity (RLuc pDNA) (A549 cells; Myristoleyl, 10 μM): 5343 RLU
- mean luminescent intensity (RLuc pDNA) (A549 cells; Myristoleyl, 15 μM): 2367 RLU
- mean luminescent intensity (RLuc pDNA) (Hela cells; HeLa, Dodecanal, 5 μM): 2459 RLU
- mean luminescent intensity (RLuc pDNA) (Hela cells; Hela, Myristoleyl, 5 μM): −664 RLU
- mean luminescent intensity (RLuc pDNA) (Hela cells; Hela, Myristoleyl, 10 μM): −678 RLU
- mean luminescent intensity (RLuc pDNA) (Hela cells; Hela, Myristoleyl, 15 μM): −687 RLU
- percentage of GFP-silencing relative to siMOCK ([1]; Dodecanal, 5 μM): 4%
- percentage of GFP-silencing relative to siMOCK ([1]; Dodecanal, 10 μM): 10%
- percentage of GFP-silencing relative to siMOCK ([1]; Dodecanal, 15 μM): 20%
- percentage of GFP-silencing relative to siMOCK ([1]; Myristoleyl, 5 μM): 14%
- percentage of GFP-silencing relative to siMOCK ([1]; Myristoleyl, 10 μM): 28%
- percentage of GFP-silencing relative to siMOCK ([2]; Dodecanal, 15 μM): 7%
- percentage of GFP-silencing relative to siMOCK ([2]; Myristoleyl, 5 μM): −8%
